Measured values as given in ChEMBL document CHEMBL4483862, “Open-source discovery of chemical leads for next-generation chemoprotective antimalarials” (2018).

Tested on: Plasmodium berghei
Test: Luciferase/luciferin-expressing antifolate-resistant parasites were used to infect a culture of HepG2 cells that were pre-incubated with compounds. Infected hepatocytes emit light due to the luciferase reaction. Assay results are presented as the percent inhibition of light emission compared to control. […]
Format: functional
Conditions: sporozoite; for IC90: read-out: LUCIFERASE INFECTION ASSAY - IC90
[1] = read-out: LUCIFERASE INFECTION ASSAY - IC50

Row | SMILES | IC90 | other results
1 | CC(C)(C)NC(=O)CNC(=O)c1cc(-c2ccccc2)nc2c1cnn2Cc1ccccc1 | > 10 µM | IC50 (PBLUC_HILL_SLOPE 16.4, PBLUC_R_SQUARED 0.327, read-out: LUCIFERASE INFECTION ASSAY - IC50): 9.02 µM
2 | O=C1C(=O)N(Cc2cc3c(cc2Cl)OCO3)c2ccc(Br)cc21 | > 8.36 µM | IC50 (FFLUC_HILL_SLOPE 13.4, FFLUC_R_SQUARED 0.714, HEPG2TOX_HILL_SLOPE 8.11, HEPG2TOX_R_SQUARED 0.359, PBLUC_HILL_SLOPE 6.2, PBLUC_R_SQUARED 0.151, read-out: LUCIFERASE INFECTION ASSAY - IC50): 7.48 µM
3 | CC(Cn1cccn1)NC(=O)C(=O)Nc1ccccc1SC1CCCC1 (configuration not stated) | 5.88 µM | IC50 (PBLUC_HILL_SLOPE 6.42, PBLUC_R_SQUARED 0.787, read-out: LUCIFERASE INFECTION ASSAY - IC50): 4.18 µM
4 | N#CCCN(Cc1ccco1)C(=O)Cn1ncc(Cl)c(Cl)c1=O | > 10 µM | IC50 (PBLUC_HILL_SLOPE 3.57, PBLUC_R_SQUARED 0.442, read-out: LUCIFERASE INFECTION ASSAY - IC50): 8.27 µM
5 | CC(=O)c1cccc(-c2cnc3ccc(-c4cncnc4)nn23)c1 | 3.69 µM | IC50 (HEPG2TOX_HILL_SLOPE 1.11, HEPG2TOX_R_SQUARED 0.828, PBLUC_HILL_SLOPE 6.15, PBLUC_R_SQUARED 0.481, read-out: LUCIFERASE INFECTION ASSAY - IC50): 2.58 µM
6 | COc1ccc(C(N)=O)cc1NC(=O)NCc1ccc(N2CCCCCC2)nc1 | > 10 µM | IC50 [1]: > 10 µM
7 | FC(F)(F)c1nc2ccccc2nc1N/N=C/c1ccc(Cl)cc1 | 9.28 µM | IC50 (HEPG2TOX_HILL_SLOPE 7.63, HEPG2TOX_R_SQUARED 0.926, PBLUC_HILL_SLOPE 14.9, PBLUC_R_SQUARED 0.207, read-out: LUCIFERASE INFECTION ASSAY - IC50): 8 µM
8 | COc1cc(-n2cnc3cnc(Nc4cccc(C(F)(F)F)c4)cc32)cc(OC)c1OC | > 10 µM | IC50 [1]: > 10 µM
9 | COc1ccc(C(=O)/C(=C\c2ccc([N+](=O)[O-])cc2)c2nc3ccccc3[nH]2)cc1 | 9.32 µM | IC50 (FFLUC_HILL_SLOPE 7.19, FFLUC_R_SQUARED 0.76, HEPG2TOX_HILL_SLOPE 6.54, HEPG2TOX_R_SQUARED 0.945, PBLUC_HILL_SLOPE 13.7, PBLUC_R_SQUARED 0.214, read-out: LUCIFERASE INFECTION ASSAY - IC50): 7.93 µM
10 | C=CCNC(=O)NC(=O)CSc1nnc(-c2ccc(OC)cc2)n1-c1cccc(C(F)(F)F)c1 | 6.91 µM | IC50 (HEPG2TOX_HILL_SLOPE 2.39, HEPG2TOX_R_SQUARED 0.903, PBLUC_HILL_SLOPE 3.60, 2.97, PBLUC_R_SQUARED 0.951, 0.459, read-out: LUCIFERASE INFECTION ASSAY - IC50): 3.56 µM
11 | Cc1ccccc1-n1c(SCC(=O)Nc2sc3c(c2C(N)=O)CCC3)nc2ccccc2c1=O | > 10 µM | IC50 (HEPG2TOX_HILL_SLOPE 1.4, HEPG2TOX_R_SQUARED 0.675, read-out: LUCIFERASE INFECTION ASSAY - IC50): > 10 µM
12 | CC1(C)CCc2cc(/C=N/NC(=O)c3ccc(Cl)cc3)ccc2O1 | > 9.63 µM | IC50 (FFLUC_HILL_SLOPE 0.306, FFLUC_R_SQUARED 0.456, PBLUC_HILL_SLOPE 2.8, PBLUC_R_SQUARED 0.043, read-out: LUCIFERASE INFECTION ASSAY - IC50): 6.8 µM
13 | CCN(CC)S(=O)(=O)c1ccc(N2CCOCC2)c(NC(=O)c2cc(-c3cc(OC)c(OC)c(OC)c3)nc3ccccc23)c1 | 8.54 µM | IC50 (PBLUC_HILL_SLOPE 2.9, PBLUC_R_SQUARED 0.79, read-out: LUCIFERASE INFECTION ASSAY - IC50): 4.01 µM
14 | Cc1ccsc1/C=N/Nc1nc2ccccc2nc1C(F)(F)F | 9.51 µM | IC50 (HEPG2TOX_HILL_SLOPE 2.86, HEPG2TOX_R_SQUARED 0.79, PBLUC_HILL_SLOPE 19.7, PBLUC_R_SQUARED 0.0461, read-out: LUCIFERASE INFECTION ASSAY - IC50): 8.5 µM
15 | CCCCNC(=O)c1c(NC(=O)c2cc(OC)cc(OC)c2)nc2ccccn12 | 5.61 µM | IC50 (FFLUC_HILL_SLOPE 9.35, FFLUC_R_SQUARED 0.0665, PBLUC_HILL_SLOPE 7.48, PBLUC_R_SQUARED 0.629, read-out: LUCIFERASE INFECTION ASSAY - IC50): 4.18 µM
16 | Cc1cc(C(=O)COC(=O)c2ccccc2C(F)(F)F)c(C)n1Cc1ccccc1Cl | 3.52 µM | IC50 (HEPG2TOX_HILL_SLOPE 0.164, HEPG2TOX_R_SQUARED 0.816, PBLUC_HILL_SLOPE 1.63, 0.884, PBLUC_R_SQUARED 0.848, 0.800, read-out: LUCIFERASE INFECTION ASSAY - IC50): 0.696 µM
17 | COc1ccc(NC(=O)NCC(=O)c2cc(C)n(-c3ccc(C)c(C)c3)c2C)cc1 | 3.99 µM | IC50 (HEPG2TOX_HILL_SLOPE 6.34, HEPG2TOX_R_SQUARED 0.826, PBLUC_HILL_SLOPE 22.8, PBLUC_R_SQUARED 0.569, read-out: LUCIFERASE INFECTION ASSAY - IC50): 3.63 µM
18 | CCn1c2ccccc2c2nnc(SCC(=O)c3cc(C)n(C)c3C)nc21 | > 10 µM | IC50 (HEPG2TOX_HILL_SLOPE 1.47, HEPG2TOX_R_SQUARED 0.958, read-out: LUCIFERASE INFECTION ASSAY - IC50): > 10 µM

Row | SMILES | IC90 | other results
19 | CCC(C)c1ccc(-c2cc(C(=O)OCC(=O)c3c(N)n(C)c(=O)n(C)c3=O)c3ccccc3n2)cc1 (configuration not stated) | > 10 µM | IC50 (PBLUC_HILL_SLOPE 18.2, PBLUC_R_SQUARED 0.259, read-out: LUCIFERASE INFECTION ASSAY - IC50): 9.1 µM
20 | O=C(NCc1ccc(Cn2ccnc2)cc1)c1csc(-c2cccs2)n1 | > 10 µM | IC50 (PBLUC_HILL_SLOPE 1.64, PBLUC_R_SQUARED 0.565, read-out: LUCIFERASE INFECTION ASSAY - IC50): 6.98 µM
21 | CCc1cc(=O)n2nc(-c3ccccc3)c(-c3ccccc3)c2[nH]1 | > 10.5 µM | IC50 (HEPG2TOX_HILL_SLOPE 1.41, HEPG2TOX_R_SQUARED 0.964, PBLUC_HILL_SLOPE 4.43, PBLUC_R_SQUARED 0.223, read-out: LUCIFERASE INFECTION ASSAY - IC50): 7.37 µM
22 | C=CS(=O)(=O)Oc1cc(C)cc(C)c1 | > 10 µM | IC50 (HEPG2TOX_HILL_SLOPE 2.11, HEPG2TOX_R_SQUARED 0.803, read-out: LUCIFERASE INFECTION ASSAY - IC50): > 10 µM
23 | Cc1cc(CN(Cc2ccc(C(=O)NC3CC3)cc2)Cc2ccco2)no1 | > 10 µM | IC50 (PBLUC_HILL_SLOPE 2.47, PBLUC_R_SQUARED 0.284, read-out: LUCIFERASE INFECTION ASSAY - IC50): 5.89 µM
24 | CSc1ccc(/C=N/OCC(=O)NCCc2ccc(Cl)cc2Cl)cc1 | > 10 µM | IC50 [1]: > 10 µM
25 | Cc1nn(-c2ccccc2)c(C)c1C(=O)ONC(=N)c1ccc(C(C)(C)C)cc1 | 3.03 µM | IC50 (HEPG2TOX_HILL_SLOPE 14.9, HEPG2TOX_R_SQUARED 0.924, PBLUC_HILL_SLOPE 26.9, PBLUC_R_SQUARED 0.601, read-out: LUCIFERASE INFECTION ASSAY - IC50): 2.79 µM
26 | CNS(=O)(=O)c1ccc(NC(=O)c2ccc3[nH]c(C)c(C)c3c2)cc1 | > 10 µM | IC50 [1]: > 10 µM
27 | CC(C)NS(=O)(=O)c1cccc(CNc2ncnc3ccccc23)c1 | 2.34 µM | IC50 (HEPG2TOX_HILL_SLOPE 0.638, HEPG2TOX_R_SQUARED 0.943, PBLUC_HILL_SLOPE 2.45, PBLUC_R_SQUARED 0.694, read-out: LUCIFERASE INFECTION ASSAY - IC50): 0.954 µM
28 | COc1cccc(C2=NN(C(=O)c3ccco3)C(c3ccccc3O)C2)c1 (configuration not stated) | 8.57 µM | IC50 (HEPG2TOX_HILL_SLOPE 15.7, HEPG2TOX_R_SQUARED 0.922, PBLUC_HILL_SLOPE 21, PBLUC_R_SQUARED 0.659, read-out: LUCIFERASE INFECTION ASSAY - IC50): 7.72 µM
29 | COc1ccc(C(=O)N(c2nc3ccccc3s2)c2c(C)cccc2C)cc1 | > 10 µM | IC50 (HEPG2TOX_HILL_SLOPE 1.69, HEPG2TOX_R_SQUARED 0.759, PBLUC_HILL_SLOPE 12.9, PBLUC_R_SQUARED 0.198, read-out: LUCIFERASE INFECTION ASSAY - IC50): 9.04 µM
30 | Clc1ccc(-c2cc(-c3csc(Nc4ccccc4Cl)n3)on2)c(Cl)c1 | > 7.81 µM | IC50 (HEPG2TOX_HILL_SLOPE 18.2, HEPG2TOX_R_SQUARED 0.802, PBLUC_HILL_SLOPE 3.06, PBLUC_R_SQUARED 0.131, read-out: LUCIFERASE INFECTION ASSAY - IC50): 7.18 µM
31 | Cc1nn(Cc2nnc(SCc3cccc(C(F)(F)F)c3)o2)c(C)c1Br | > 7.38 µM | IC50 [1]: > 7.38 µM
32 | Cc1cc(C)c(S(=O)(=O)N2CCC(C(=O)N3CCn4c3nc3ccccc34)CC2)c(C)c1 | > 10 µM | IC50 (PBLUC_HILL_SLOPE 1.44, PBLUC_R_SQUARED 0.637, read-out: LUCIFERASE INFECTION ASSAY - IC50): 3.45 µM
33 | Cc1nn(-c2ccccc2)c2nc(-c3cccs3)cc(C(=O)OC(C)C(=O)N3CCCc4ccccc43)c12 (configuration not stated) | > 10 µM | IC50 (FFLUC_HILL_SLOPE 2.63, FFLUC_R_SQUARED 0.683, PBLUC_HILL_SLOPE 9.18, PBLUC_R_SQUARED 0.333, read-out: LUCIFERASE INFECTION ASSAY - IC50): 8.32 µM
34 | Cc1ccccc1OCc1occc1C(=O)Nc1cccc(-n2cnnn2)c1 | 6.83 µM | IC50 (HEPG2TOX_HILL_SLOPE 2.96, HEPG2TOX_R_SQUARED 0.854, PBLUC_HILL_SLOPE 2.81, PBLUC_R_SQUARED 0.577, read-out: LUCIFERASE INFECTION ASSAY - IC50): 3.12 µM
35 | CCC1CCCCN1CC(=O)Nc1cc(C)nn1-c1nc(C)cc(C)n1 (configuration not stated) | > 10 µM | IC50 (HEPG2TOX_HILL_SLOPE 4.29, HEPG2TOX_R_SQUARED 0.929, read-out: LUCIFERASE INFECTION ASSAY - IC50): > 10 µM
36 | CCCCN(C(=O)CCC(=O)OCC(=O)NC(=O)NCC)c1c(N)n(CCC)c(=O)[nH]c1=O | > 10 µM | IC50 [1]: > 10 µM
